# Reference: patent EP0788796A1, “URICOSURIC AGENT” (priority 1995, dated 1997)
# Test: Uric acid excreting and diuretic actions in rats
# Assay type: in vivo
# Details: Rattus norvegicus; 30 mg/kg oral, female Wistar rats, urine collected up to 5 h, relative value with control = 100; read-out: Urine Volume (%)
row,SMILES,response vs control in vivo at 30 mg/kg
1,"NS(=O)(=O)c1cc(C(=O)O)c(NCc2ccco2)cc1Cl [Furosemide, furosemide, reference compound]",215%

# Test: Acute toxicity test
# Assay type: in vivo
# Details: oral 100 - 1000 mg/kg, female Wistar rats, observed over 24 h
# Experimental: Three female Wistar rats (4-week old) in each group were administered orally with 100 - 1000 mg/kg of a test compound in a volume of 10 ml/kg as suspended in an aqueous solution of 0.5% carboxymethylcellulose sodium or 5% gum arabic and were subsequently observed over 24 h. Compounds 1 - 6 were as identified above.
row,SMILES,Acute toxicity (Minimal dose causing death: mg/kg)
1,"O=C1CN(S(=O)(=O)C2CCCCCC2)C(=O)N1 [Compound 2, 1-(cycloheptylsulfonyl)hydantoin]",>1000 (no death case at 1000) mg/kg
2,"O=C1CN(S(=O)(=O)C2CCCCCCC2)C(=O)N1 [Compound 3, 1-(cyclooctylsulfonyl)hydantoin]",>1000 (no death case at 1000) mg/kg
3,"O=C1CN(S(=O)(=O)c2cc(Cl)ccc2Cl)C(=O)N1 [Compound 6, 1-(2,5-dichlorophenylsulfonyl)hydantoin]",>1000 (no death case at 1000) mg/kg
4,"Cc1cc(S(=O)(=O)N2CC(=O)NC2=O)c(C)s1 [Compound 4, 1-(2,5-dimethylthien-3-ylsulfonyl)hydantoin]",>1000 (no death case at 1000) mg/kg
5,"O=C1CN(S(=O)(=O)C2Cc3ccccc3C2)C(=O)N1 [Compound 5, 1-(indan-2-ylsulfonyl)hydantoin]",>1000 (no death case at 1000) mg/kg
6,"O=C1CN(S(=O)(=O)C2CCCCC2)C(=O)N1 [Compound 1, 1-(cyclohexylsulfonyl)hydantoin]",>1000 (no death case at 1000) mg/kg

# Test: Uric acid excreting and diuretic actions in rats
# Assay type: in vivo, Wistar rats
# Details: Rattus norvegicus; 300 mg/kg oral, female Wistar rats, urine collected up to 5 h, relative value with control = 100; read-out: Urinary excretion of uric acid (%)
# Experimental: Three female Wistar rats (4-week old) in each group were administered orally with 300 or 1000 mg/kg of a test compound in a volume of 10 ml/kg as suspended in an aqueous solution of 0.5% carboxymethylcellulose sodium or 5% gum arabic; immediately thereafter, the animals were loaded orally with 25 ml/kg of physiological saline and the urine was collected up to 5 h after the administration of the test compound. The collected urine was immediately measured quantitatively and the urinary concentration of uric acid was measured by a urikase method in accordance with the procedure of Kabasakalian et al. [Kabasakalian, P. et al.: Clin Chem., 19, 522-524 (1973)] and the urinary excretion of uric acid was calculated. […]
row,SMILES,response vs control in vivo at 300 mg/kg
1,"O=C1CN(S(=O)(=O)C2CCCCCC2)C(=O)N1 [Compound 2, 1-(cycloheptylsulfonyl)hydantoin]",152%
2,"O=C1CN(S(=O)(=O)C2CCCCCCC2)C(=O)N1 [Compound 3, 1-(cyclooctylsulfonyl)hydantoin]",103%
3,"O=C1CN(S(=O)(=O)c2cc(Cl)ccc2Cl)C(=O)N1 [Compound 6, 1-(2,5-dichlorophenylsulfonyl)hydantoin]",96%
4,"Cc1cc(S(=O)(=O)N2CC(=O)NC2=O)c(C)s1 [Compound 4, 1-(2,5-dimethylthien-3-ylsulfonyl)hydantoin]",104%
5,"O=C1CN(S(=O)(=O)C2Cc3ccccc3C2)C(=O)N1 [Compound 5, 1-(indan-2-ylsulfonyl)hydantoin]",102%
6,"CCCN(CCC)S(=O)(=O)c1ccc(C(=O)O)cc1 [Probenecid, probenecid, reference compound]",78%
7,"O=C1CN(S(=O)(=O)C2CCCCC2)C(=O)N1 [Compound 1, 1-(cyclohexylsulfonyl)hydantoin]",116%

# Same assay, conditions: Rattus norvegicus; 300 mg/kg oral, female Wistar rats, urine collected up to 5 h, relative value with control = 100; read-out: Urine Volume (%)
row,SMILES,response vs control in vivo at 300 mg/kg
1,"O=C1CN(S(=O)(=O)C2CCCCCC2)C(=O)N1 [Compound 2, 1-(cycloheptylsulfonyl)hydantoin]",159%
2,"O=C1CN(S(=O)(=O)C2CCCCCCC2)C(=O)N1 [Compound 3, 1-(cyclooctylsulfonyl)hydantoin]",109%
3,"O=C1CN(S(=O)(=O)c2cc(Cl)ccc2Cl)C(=O)N1 [Compound 6, 1-(2,5-dichlorophenylsulfonyl)hydantoin]",151%
4,"Cc1cc(S(=O)(=O)N2CC(=O)NC2=O)c(C)s1 [Compound 4, 1-(2,5-dimethylthien-3-ylsulfonyl)hydantoin]",111%
5,"O=C1CN(S(=O)(=O)C2Cc3ccccc3C2)C(=O)N1 [Compound 5, 1-(indan-2-ylsulfonyl)hydantoin]",135%
6,"CCCN(CCC)S(=O)(=O)c1ccc(C(=O)O)cc1 [Probenecid, probenecid, reference compound]",60%
7,"O=C1CN(S(=O)(=O)C2CCCCC2)C(=O)N1 [Compound 1, 1-(cyclohexylsulfonyl)hydantoin]",96%

# Same assay, conditions: Rattus norvegicus; 1000 mg/kg oral, female Wistar rats, urine collected up to 5 h, relative value with control = 100; read-out: Urinary excretion of uric acid (%)
row,SMILES,response vs control in vivo at 1000 mg/kg
1,"O=C1CN(S(=O)(=O)C2CCCCCC2)C(=O)N1 [Compound 2, 1-(cycloheptylsulfonyl)hydantoin]",256%
2,"O=C1CN(S(=O)(=O)C2CCCCCCC2)C(=O)N1 [Compound 3, 1-(cyclooctylsulfonyl)hydantoin]",245%
3,"O=C1CN(S(=O)(=O)c2cc(Cl)ccc2Cl)C(=O)N1 [Compound 6, 1-(2,5-dichlorophenylsulfonyl)hydantoin]",151%
4,"Cc1cc(S(=O)(=O)N2CC(=O)NC2=O)c(C)s1 [Compound 4, 1-(2,5-dimethylthien-3-ylsulfonyl)hydantoin]",145%
5,"O=C1CN(S(=O)(=O)C2Cc3ccccc3C2)C(=O)N1 [Compound 5, 1-(indan-2-ylsulfonyl)hydantoin]",144%
6,"CCCN(CCC)S(=O)(=O)c1ccc(C(=O)O)cc1 [Probenecid, probenecid, reference compound]",167%
7,"O=C1CN(S(=O)(=O)C2CCCCC2)C(=O)N1 [Compound 1, 1-(cyclohexylsulfonyl)hydantoin]",155%

# Same assay, conditions: Rattus norvegicus; 1000 mg/kg oral, female Wistar rats, urine collected up to 5 h, relative value with control = 100; read-out: Urine Volume (%)
row,SMILES,response vs control in vivo at 1000 mg/kg
1,"O=C1CN(S(=O)(=O)C2CCCCCC2)C(=O)N1 [Compound 2, 1-(cycloheptylsulfonyl)hydantoin]",170%
2,"O=C1CN(S(=O)(=O)C2CCCCCCC2)C(=O)N1 [Compound 3, 1-(cyclooctylsulfonyl)hydantoin]",95%
3,"O=C1CN(S(=O)(=O)c2cc(Cl)ccc2Cl)C(=O)N1 [Compound 6, 1-(2,5-dichlorophenylsulfonyl)hydantoin]",223%
4,"Cc1cc(S(=O)(=O)N2CC(=O)NC2=O)c(C)s1 [Compound 4, 1-(2,5-dimethylthien-3-ylsulfonyl)hydantoin]",207%
5,"O=C1CN(S(=O)(=O)C2Cc3ccccc3C2)C(=O)N1 [Compound 5, 1-(indan-2-ylsulfonyl)hydantoin]",144%
6,"CCCN(CCC)S(=O)(=O)c1ccc(C(=O)O)cc1 [Probenecid, probenecid, reference compound]",20%
7,"O=C1CN(S(=O)(=O)C2CCCCC2)C(=O)N1 [Compound 1, 1-(cyclohexylsulfonyl)hydantoin]",124%

# Same assay, conditions: result in words, summary of Table 1
row,SMILES,urine volume
1,"NS(=O)(=O)c1cc(C(=O)O)c(NCc2ccco2)cc1Cl [Furosemide, furosemide, reference compound]",an increase in the urine volume was observed
2,"CCCN(CCC)S(=O)(=O)c1ccc(C(=O)O)cc1 [Probenecid, probenecid, reference compound]",significantly decreased the urine volume
